According to ChEMBL document CHEMBL5696441 (Nat Chem Biol, 2011):

How the values were obtained:
[1] = target: Serine/threonine-protein kinase LATS2 (Homo sapiens) (UniProt Q9NRM7); test: Inhibition of LATS2 (unknown origin) assessed as remaining activity at 1 uM by Kinome scan method relative to control
[2] = target: Serine/threonine-protein kinase 33 (Homo sapiens) (UniProt Q9BYT3); test: Inhibition of STK33 (unknown origin) assessed as remaining activity at 1 uM by Kinome scan method relative to control
Serine/threonine-protein kinase 33 (Homo sapiens), sequence (Q9BYT3 whole entry, looked up): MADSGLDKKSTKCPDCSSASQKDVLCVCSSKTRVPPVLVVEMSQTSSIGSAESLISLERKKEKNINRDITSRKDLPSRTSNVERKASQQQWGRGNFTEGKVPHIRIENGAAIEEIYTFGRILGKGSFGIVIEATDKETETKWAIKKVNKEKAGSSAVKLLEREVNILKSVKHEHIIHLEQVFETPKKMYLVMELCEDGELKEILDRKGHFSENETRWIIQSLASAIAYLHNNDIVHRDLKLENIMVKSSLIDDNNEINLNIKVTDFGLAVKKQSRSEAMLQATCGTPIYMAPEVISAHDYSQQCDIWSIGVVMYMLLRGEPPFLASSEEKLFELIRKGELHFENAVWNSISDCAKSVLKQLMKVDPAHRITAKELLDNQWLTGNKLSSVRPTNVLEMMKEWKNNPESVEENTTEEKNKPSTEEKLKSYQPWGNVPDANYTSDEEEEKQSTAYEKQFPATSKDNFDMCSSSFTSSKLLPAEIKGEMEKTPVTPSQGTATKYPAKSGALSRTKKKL

[3] = target: Ephrin type-A receptor 2 (Homo sapiens) (UniProt P29317); test: Inhibition of EPHA2 (unknown origin) assessed as remaining activity at 1 uM by Kinome scan method relative to control
Ephrin type-A receptor 2 (Homo sapiens), sequence (P29317 whole entry): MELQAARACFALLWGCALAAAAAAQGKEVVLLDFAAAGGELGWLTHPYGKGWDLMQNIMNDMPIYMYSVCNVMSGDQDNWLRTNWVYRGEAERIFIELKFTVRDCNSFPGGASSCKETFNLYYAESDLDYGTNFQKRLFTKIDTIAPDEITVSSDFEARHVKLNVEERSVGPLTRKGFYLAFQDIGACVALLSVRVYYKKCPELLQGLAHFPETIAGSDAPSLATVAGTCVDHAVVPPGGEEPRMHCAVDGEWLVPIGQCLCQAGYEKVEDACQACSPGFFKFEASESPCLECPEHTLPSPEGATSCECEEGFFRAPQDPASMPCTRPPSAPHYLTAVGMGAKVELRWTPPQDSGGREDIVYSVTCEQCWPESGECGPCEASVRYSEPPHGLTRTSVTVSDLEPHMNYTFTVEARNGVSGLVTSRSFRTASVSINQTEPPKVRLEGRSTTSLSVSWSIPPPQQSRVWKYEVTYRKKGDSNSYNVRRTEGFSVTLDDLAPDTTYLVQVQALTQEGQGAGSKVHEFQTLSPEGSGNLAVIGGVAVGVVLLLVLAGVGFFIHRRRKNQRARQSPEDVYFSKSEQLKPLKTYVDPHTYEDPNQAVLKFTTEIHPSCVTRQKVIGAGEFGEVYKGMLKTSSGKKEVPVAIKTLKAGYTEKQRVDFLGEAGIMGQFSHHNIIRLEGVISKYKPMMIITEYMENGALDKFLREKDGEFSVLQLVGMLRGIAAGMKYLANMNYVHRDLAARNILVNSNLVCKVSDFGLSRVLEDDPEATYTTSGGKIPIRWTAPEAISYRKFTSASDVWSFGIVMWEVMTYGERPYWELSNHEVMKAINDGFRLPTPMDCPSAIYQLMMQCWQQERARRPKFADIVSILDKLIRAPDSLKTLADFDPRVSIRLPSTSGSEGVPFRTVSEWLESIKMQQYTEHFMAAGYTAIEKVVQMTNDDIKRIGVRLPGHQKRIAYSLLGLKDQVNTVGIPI

[4] = target: T1, Serine/threonine-protein kinase D1 (Homo sapiens) (UniProt Q15139); test: Inhibition of PRKD1 (unknown origin) assessed as remaining activity at 1 uM by Kinome scan method relative to control
T1 sequence (whole entry): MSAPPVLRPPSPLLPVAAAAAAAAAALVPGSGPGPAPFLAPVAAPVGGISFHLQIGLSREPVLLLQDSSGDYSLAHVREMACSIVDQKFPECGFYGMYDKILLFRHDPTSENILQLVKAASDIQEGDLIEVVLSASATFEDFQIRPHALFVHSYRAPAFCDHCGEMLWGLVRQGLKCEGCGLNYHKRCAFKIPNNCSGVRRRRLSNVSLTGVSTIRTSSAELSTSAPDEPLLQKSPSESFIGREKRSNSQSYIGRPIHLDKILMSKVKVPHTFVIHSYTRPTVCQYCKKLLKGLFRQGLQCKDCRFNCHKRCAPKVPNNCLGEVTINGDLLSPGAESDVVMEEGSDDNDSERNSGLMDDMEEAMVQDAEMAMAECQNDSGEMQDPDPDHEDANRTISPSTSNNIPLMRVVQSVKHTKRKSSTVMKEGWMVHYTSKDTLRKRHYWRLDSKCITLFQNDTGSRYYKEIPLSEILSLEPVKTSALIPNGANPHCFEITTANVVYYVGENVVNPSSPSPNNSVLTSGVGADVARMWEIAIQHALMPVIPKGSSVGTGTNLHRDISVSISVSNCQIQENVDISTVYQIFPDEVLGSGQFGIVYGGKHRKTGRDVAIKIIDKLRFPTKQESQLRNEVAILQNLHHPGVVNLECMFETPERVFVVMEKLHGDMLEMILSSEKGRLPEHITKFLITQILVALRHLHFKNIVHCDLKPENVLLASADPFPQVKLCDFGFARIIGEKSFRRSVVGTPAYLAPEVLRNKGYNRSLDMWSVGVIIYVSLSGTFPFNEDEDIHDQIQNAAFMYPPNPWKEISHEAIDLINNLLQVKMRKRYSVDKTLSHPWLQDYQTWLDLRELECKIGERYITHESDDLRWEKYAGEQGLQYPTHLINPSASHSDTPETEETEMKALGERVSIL

[5] = target: T2, Tyrosine-protein kinase ITK/TSK (Homo sapiens) (UniProt Q08881); test: Inhibition of ITK (unknown origin) assessed as remaining activity at 1 uM by Kinome scan method relative to control
T2 sequence (whole entry): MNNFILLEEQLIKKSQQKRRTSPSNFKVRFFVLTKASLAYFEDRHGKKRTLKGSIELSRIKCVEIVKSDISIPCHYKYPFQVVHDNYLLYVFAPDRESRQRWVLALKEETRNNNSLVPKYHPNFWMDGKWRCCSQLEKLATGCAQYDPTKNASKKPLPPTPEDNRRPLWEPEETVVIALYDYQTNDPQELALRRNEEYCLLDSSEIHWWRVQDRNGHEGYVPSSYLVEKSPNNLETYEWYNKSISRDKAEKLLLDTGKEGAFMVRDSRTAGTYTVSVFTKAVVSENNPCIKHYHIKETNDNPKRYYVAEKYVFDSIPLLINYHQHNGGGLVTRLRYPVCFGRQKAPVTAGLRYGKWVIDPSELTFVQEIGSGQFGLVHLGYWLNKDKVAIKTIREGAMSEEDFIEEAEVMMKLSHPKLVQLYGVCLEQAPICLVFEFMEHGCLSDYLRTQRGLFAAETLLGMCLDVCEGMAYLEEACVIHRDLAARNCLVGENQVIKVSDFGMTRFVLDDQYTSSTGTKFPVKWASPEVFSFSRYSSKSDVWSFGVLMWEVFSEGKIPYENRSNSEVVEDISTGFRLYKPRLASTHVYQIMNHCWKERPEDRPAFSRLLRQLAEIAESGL

[6] = target: T3, Megakaryocyte-associated tyrosine-protein kinase (Homo sapiens) (UniProt P42679); test: Inhibition of CTK (unknown origin) assessed as remaining activity at 1 uM by Kinome scan method relative to control
T3 sequence (whole entry): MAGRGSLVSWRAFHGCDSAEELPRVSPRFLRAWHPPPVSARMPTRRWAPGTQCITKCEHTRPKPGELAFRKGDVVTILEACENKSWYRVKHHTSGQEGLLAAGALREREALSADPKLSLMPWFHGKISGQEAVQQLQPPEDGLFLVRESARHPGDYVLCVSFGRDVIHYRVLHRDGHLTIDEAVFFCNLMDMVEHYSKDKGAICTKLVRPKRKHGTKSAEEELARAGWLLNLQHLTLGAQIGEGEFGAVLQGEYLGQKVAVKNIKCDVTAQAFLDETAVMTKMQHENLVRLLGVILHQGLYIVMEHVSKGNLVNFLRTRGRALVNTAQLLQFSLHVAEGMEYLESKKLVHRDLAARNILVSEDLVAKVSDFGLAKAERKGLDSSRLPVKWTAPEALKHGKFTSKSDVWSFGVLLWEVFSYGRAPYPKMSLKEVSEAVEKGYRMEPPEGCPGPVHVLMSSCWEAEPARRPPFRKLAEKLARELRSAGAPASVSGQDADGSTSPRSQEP

[7] = target: Bone morphogenetic protein receptor type-1A (Homo sapiens) (UniProt P36894); test: Inhibition of BMPR1A (unknown origin) assessed as remaining activity at 1 uM by Kinome scan method relative to control
Bone morphogenetic protein receptor type-1A (Homo sapiens), sequence (P36894 whole entry, the tested form may be a part): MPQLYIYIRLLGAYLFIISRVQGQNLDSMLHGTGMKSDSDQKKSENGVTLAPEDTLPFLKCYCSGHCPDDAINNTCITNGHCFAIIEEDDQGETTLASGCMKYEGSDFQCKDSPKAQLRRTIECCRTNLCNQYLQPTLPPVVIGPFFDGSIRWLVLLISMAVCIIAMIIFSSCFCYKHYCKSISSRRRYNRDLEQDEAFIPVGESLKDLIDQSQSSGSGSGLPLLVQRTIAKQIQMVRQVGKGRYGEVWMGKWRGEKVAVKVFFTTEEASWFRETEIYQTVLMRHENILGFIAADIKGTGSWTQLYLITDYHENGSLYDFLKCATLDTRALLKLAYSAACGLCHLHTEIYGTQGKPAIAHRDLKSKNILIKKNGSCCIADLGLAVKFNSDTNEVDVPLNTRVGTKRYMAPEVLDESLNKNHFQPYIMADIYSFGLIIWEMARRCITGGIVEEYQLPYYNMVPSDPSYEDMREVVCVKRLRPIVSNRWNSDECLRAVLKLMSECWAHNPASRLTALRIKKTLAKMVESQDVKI

[8] = target: Phosphatidylinositol 3-kinase C2 domain-containing subunit gamma (Homo sapiens) (UniProt O75747); test: Inhibition of PIK3C2G (unknown origin) assessed as remaining activity at 1 uM by Kinome scan method relative to control
[9] = target: Dual specificity tyrosine-phosphorylation-regulated kinase 1A (Homo sapiens) (UniProt Q13627); test: Inhibition of DYRK1A (unknown origin) assessed as remaining activity at 1 uM by Kinome scan method relative to control
[10] = target: SRSF protein kinase 2 (Homo sapiens) (UniProt P78362); test: Inhibition of SRPK2 (unknown origin) assessed as remaining activity at 1 uM by Kinome scan method relative to control
[11] = tested on: Phosphatidylinositol 4,5-bisphosphate 3-kinase catalytic subunit alpha isoform (Homo sapiens), P42336 [M1043I]; test: Inhibition of PIK3CA M1043I mutant (unknown origin) assessed as remaining activity at 1 uM by Kinome scan method relative to control
[12] = target: Serine/threonine-protein kinase 36 (Homo sapiens) (UniProt Q9NRP7); test: Inhibition of STK36 (unknown origin) assessed as remaining activity at 1 uM by Kinome scan method relative to control
Serine/threonine-protein kinase 36 (Homo sapiens), sequence (Q9NRP7 whole entry): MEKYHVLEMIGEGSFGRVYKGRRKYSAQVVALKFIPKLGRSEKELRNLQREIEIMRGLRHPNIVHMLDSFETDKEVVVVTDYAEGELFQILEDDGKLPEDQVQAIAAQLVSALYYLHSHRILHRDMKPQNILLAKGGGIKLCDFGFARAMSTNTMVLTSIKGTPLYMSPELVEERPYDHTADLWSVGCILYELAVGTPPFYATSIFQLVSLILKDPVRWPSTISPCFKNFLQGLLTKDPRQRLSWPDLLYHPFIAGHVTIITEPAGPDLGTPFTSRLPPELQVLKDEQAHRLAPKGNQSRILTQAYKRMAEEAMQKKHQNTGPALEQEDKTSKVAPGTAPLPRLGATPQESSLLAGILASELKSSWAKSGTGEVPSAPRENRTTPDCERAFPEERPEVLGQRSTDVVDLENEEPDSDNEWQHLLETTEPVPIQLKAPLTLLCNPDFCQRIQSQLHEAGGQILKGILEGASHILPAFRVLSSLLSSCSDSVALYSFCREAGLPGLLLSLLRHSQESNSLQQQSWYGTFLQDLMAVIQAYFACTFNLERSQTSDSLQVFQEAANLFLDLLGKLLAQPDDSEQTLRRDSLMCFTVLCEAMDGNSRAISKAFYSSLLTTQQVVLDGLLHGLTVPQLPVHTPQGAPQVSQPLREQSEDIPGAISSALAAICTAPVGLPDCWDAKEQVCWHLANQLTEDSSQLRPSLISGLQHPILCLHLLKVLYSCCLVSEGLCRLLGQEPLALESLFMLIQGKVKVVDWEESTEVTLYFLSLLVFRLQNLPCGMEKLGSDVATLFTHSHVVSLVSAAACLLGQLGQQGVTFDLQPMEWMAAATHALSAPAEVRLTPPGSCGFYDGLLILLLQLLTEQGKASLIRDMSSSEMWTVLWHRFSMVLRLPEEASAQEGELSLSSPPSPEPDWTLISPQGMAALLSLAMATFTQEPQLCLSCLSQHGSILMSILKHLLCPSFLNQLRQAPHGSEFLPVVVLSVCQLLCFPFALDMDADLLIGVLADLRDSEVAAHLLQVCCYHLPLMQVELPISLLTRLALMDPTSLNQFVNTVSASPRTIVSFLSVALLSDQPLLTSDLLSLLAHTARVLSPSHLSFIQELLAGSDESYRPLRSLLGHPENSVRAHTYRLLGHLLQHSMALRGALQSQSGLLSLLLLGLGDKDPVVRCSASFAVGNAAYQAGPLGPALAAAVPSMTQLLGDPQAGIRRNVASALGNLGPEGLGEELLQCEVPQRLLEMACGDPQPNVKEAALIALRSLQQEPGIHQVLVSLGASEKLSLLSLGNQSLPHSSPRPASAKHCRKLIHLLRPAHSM

Serine/threonine-protein kinase LATS2 (Homo sapiens), sequence (Q9NRM7 whole entry): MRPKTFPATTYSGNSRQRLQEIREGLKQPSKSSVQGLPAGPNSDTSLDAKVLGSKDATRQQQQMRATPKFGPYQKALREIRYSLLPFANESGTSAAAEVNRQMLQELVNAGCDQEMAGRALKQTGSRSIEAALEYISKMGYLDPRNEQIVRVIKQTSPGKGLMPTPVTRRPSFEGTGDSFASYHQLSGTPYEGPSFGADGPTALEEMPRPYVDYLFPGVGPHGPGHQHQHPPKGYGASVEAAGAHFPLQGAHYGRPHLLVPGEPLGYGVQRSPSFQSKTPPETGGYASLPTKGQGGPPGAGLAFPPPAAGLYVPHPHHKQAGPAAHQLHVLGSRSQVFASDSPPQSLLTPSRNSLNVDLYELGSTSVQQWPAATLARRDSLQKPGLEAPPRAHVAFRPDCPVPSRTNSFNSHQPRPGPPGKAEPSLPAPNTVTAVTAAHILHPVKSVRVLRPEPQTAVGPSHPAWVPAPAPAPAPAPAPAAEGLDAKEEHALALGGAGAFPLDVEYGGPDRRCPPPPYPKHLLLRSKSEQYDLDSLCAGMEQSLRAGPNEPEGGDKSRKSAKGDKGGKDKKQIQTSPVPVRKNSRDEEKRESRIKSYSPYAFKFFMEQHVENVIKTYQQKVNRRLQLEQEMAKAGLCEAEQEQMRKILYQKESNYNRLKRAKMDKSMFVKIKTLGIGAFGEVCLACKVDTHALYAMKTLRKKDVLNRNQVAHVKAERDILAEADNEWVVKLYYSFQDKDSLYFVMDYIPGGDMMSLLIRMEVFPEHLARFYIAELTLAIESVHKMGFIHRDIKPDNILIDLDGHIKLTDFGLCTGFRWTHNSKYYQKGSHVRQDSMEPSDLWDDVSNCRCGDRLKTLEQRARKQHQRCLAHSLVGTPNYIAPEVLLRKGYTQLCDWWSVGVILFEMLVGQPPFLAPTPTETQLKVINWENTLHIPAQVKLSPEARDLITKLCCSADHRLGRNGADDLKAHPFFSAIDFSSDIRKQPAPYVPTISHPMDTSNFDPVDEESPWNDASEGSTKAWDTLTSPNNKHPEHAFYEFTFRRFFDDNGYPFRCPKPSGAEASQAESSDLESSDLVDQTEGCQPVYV

| SMILES | Activity [1] | Activity [2] | Activity [3] | Activity [4] | Activity [5] | Activity [6] | Activity [7] | Activity [8] | Activity [9] | Activity [10] | Activity [11] | Activity [12] |
| --- | --- | --- | --- | --- | --- | --- | --- | --- | --- | --- | --- | --- |
| Nc1ccccc1Nc1ccc2c(c1)CCc1ccccc1C2=O | 77% | 82% | 93% | 91% | 98% | 71% | 98% | 97% | 92% | 79% | 84% | 97% |
| O=C1c2ccc(Nc3ccc(F)cc3F)cc2CCc2ccc(OC[C@H](O)CO)cc21 [Skepinone-L] | 94% | 100% | 92% | 100% | 100% | 80% | 100% | 100% | 98% | 95% | 90% | 98% |
